# Reference: publication PMC9138994 (Biomolecules, 2022)
# Test system: C57BL/6 mice
# Experiment: Tail suspension test (TST)
# Assay type: in vivo
# Details: acute i.p. pretreatment, ST-2300 10 or 15 mg/kg, PIM 5–15 mg/kg, FLX 10 mg/kg, vs saline controls, C57BL/6 mice, 6 min
# Protocol: Inbred adult male C57BL/6 mice (aged 10–12 weeks and weighing 20–25 g) were obtained from the animal facility in the College of Medicine and Health Sciences, United Arab Emirates University. The animals were maintained in a separate air-conditioned room with controlled temperature and humidity (24 ± 2 °C and 55 ± 15%, respectively), with a 12 h light/dark cycle, and ad libitum to food and water. All the experiments were performed between 9.00 am and 3.00 pm. The procedures were approved by the Institutional Animal Ethics Committee of College of Medicine and Health Sciences/United Arab Emirates University (Approval No. ERA-2019-6010). To reduce the suffering of the animals, a minimum number of animals were used in this study, whereas the objectives were not compromised.
# These experiments provide the first behavioral assessment of the ST-2300 in anxiety-like and depression-like behaviors in mice. All doses are expressed in terms of the free base of all test compounds. The drugs used in the current study were dissolved in saline and injected i.p. at a volume of 1 mL/kg. All experimental procedures were conducted in a blinded fashion in which the experimenter was uninformed about the specific treatment groups to which an animal group belonged. Saline, ST-2300 (5, 10, and 15 mg/kg), PIM (5, 10, and 15 mg/kg), FLX (10 mg/kg), RAM (10 mg/kg), and DZP (1 mg/kg) were injected i.p. 30–45 min before the beginning of the behavioral experiments.
# This experimental protocol was followed as previously described, however with slight modifications. Each mouse was suspended on the edge of a rod 50 cm above a table top using adhesive Scotch tape placed approximately 1 cm from the tip of the tail. Tail climbing was prevented by passing the mouse’s tail through a small plastic cylinder prior to suspension, as described by Can et al.. The duration of immobility was manually scored for a 6 min observation period. Mice were considered immobile only when they hung down passively and were completely motionless. The parameter recorded was the number of seconds spent immobile.
compound,measurement,value
"CNCCC(Oc1ccc(C(F)(F)F)cc1)c1ccccc1 (stereo not shown) [FLX, fluoxetine, reference compound]",immobility time in TST,significant differences between FLX and saline controls
